Here are results for 27 molecules from patent US9206159B2, “Piperazine-piperidine compounds as hepatitis C virus inhibitors” (Theravance Biopharma R&D IP, LLC, priority 2012, dated 2015).

For one test, the system named is HCV genotype 1a replicon cell line. In words: HCV Genotype 1a Replicon Assay. The following applies: Hepatitis C virus, Huh7.5 cell background, NS3-specific protease activity in lysates, 48 or 72 hours, read-out: Genotype 1a (pEC50 class) (converted). It counts as cell-based, hepatitis C virus. The procedure, abridged: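 Huh7.5-based subgenomic genotype 1a replicon cells, plated without G418, exposed to compound dose-responses (0.5% DMSO final) for 48 or 72 h at 37 °C. Lysate NS3/4a protease activity read with 15 μM FRET substrate, 20 min at 37 °C (Ex 340/Em 509 nm); EC50 from 4-parameter fit.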
(In antiviral work, replicon cells carry a viral genome segment that copies itself.)
`COC(=O)N[C@H](C(=O)N1C[C@@H](C)C[C@H]1c1nc(-c2ccc(-c3cc(Cl)c(NC(=O)N4CCN(C5CCN(C(=O)C(C)(C)C)CC5)CC4)cc3OC(F)(F)F)cc2)c[nH]1)C(C)C` [Example 4]: the EC50 was 0.1 to 1 nM.
The same measure, in the same setting: the same measure for `COC(=O)N[C@H](C(=O)N1C[C@@H](OC)C[C@H]1c1nc(-c2ccc(-c3ccc(NC(=O)N4CCN(C5CCN(C(=O)C(C)(C)C)CC5)CC4)cc3OC(F)(F)F)cc2)c[nH]1)C(C)C` [Example 5-1]: 0.1 to 1 nM.
On the same count and under the same terms, the same measure for `COC(=O)N[C@H](C(=O)N1C[C@@H](OC)C[C@H]1c1nc(-c2ccc(-c3ccc(NC(=O)N4CCN(C5CCN(C(=O)C6CC6)CC5)CC4)cc3OC(F)(F)F)cc2)c[nH]1)C(C)C` [Example 5-3]: 0.1 to 1 nM; for `COC(=O)N[C@H](C(=O)N1C[C@@H](OC)C[C@H]1c1nc(-c2ccc(-c3ccc(NC(=O)N4CCN(C5CCN(C(=O)C6CCCC6(C)C)CC5)CC4)cc3OC(F)(F)F)cc2)c[nH]1)C(C)C` (stereo partly drawn) [Example 5-4]: 0.1 to 1 nM; for `COC(=O)N[C@H](C(=O)N1C[C@@H](OC)C[C@H]1c1nc(-c2ccc(-c3ccc(NC(=O)N4CCN(C5CCN(C(=O)C(C)(C)CO)CC5)CC4)cc3OC(F)(F)F)cc2)c[nH]1)C(C)C` [Example 5-5]: 0.1 to 1 nM.
As for `COC(=O)N[C@H](C(=O)N1C[C@@H](C)C[C@H]1c1nc(-c2ccc(-c3cc(Cl)c(NC(=O)N4CCN(C5CCN(C(=O)C6CC6(F)F)CC5)CC4)cc3OC(F)(F)F)cc2)c[nH]1)C(C)C` (stereo partly drawn) [Example 5], the EC50 was 0.1 to 1 nM.
Still for that read-out and setting: the same measure for `COC(=O)N[C@H](C(=O)N1C[C@@H](C)C[C@H]1c1nc2c(ccc3cc(-c4ccc(NC(=O)N5CCN(C6CCN(C(=O)OC(C)(C)C)CC6)CC5)cc4OC(F)(F)F)ccc32)[nH]1)C(C)C` [Example 6-2]: under 0.1 nM; for `COC(=O)N[C@H](C(=O)N1C[C@@H](C)C[C@H]1c1nc2c(ccc3cc(-c4ccc(NC(=O)N5CCN(C6CCN(C(=O)C7CCC7(C)C)CC6)CC5)cc4OC(F)(F)F)ccc32)[nH]1)C(C)C` (stereo partly drawn) [Example 6-3]: under 0.1 nM; for `COC(=O)N[C@H](C(=O)N1C[C@@H](C)C[C@H]1c1nc(-c2ccc(-c3cc(Cl)c(NC(=O)N4CCN(C5CCN(C(=O)C6CCC6)CC5)CC4)cc3OC(F)(F)F)cc2)c[nH]1)C(C)C` [Example 6]: 0.1 to 1 nM.
The same measure, in the same setting: the same measure for `COC(=O)N[C@H](C(=O)N1C[C@@H](C)C[C@H]1c1nc2c(ccc3cc(-c4ccc(NC(=O)N5CCN(C6CCN(C(=O)OC(C)(C)C)CC6)CC5)cc4OC(F)(F)F)ccc32)[nH]1)C1CCOCC1` [Example 7-1]: under 0.1 nM; for `COC(=O)N[C@H](C(=O)N1C[C@@H](C)C[C@H]1c1nc2c(ccc3cc(-c4ccc(NC(=O)N5CCN(C6CCN(C(=O)C(C)(C)C)CC6)CC5)cc4OC(F)(F)F)ccc32)[nH]1)C1CCOCC1` [Example 7-2]: under 0.1 nM.
On the same count and under the same terms, next, `COC(=O)N[C@H](C(=O)N1C[C@@H](C)C[C@H]1c1nc2c(ccc3cc(-c4ccc(NC(=O)N5CCN(C6CCN(C(=O)C(C)(C)CO)CC6)CC5)cc4OC(F)(F)F)ccc32)[nH]1)C1CCOCC1` [Example 7-3]: 0.1 to 1 nM; `COC(=O)N[C@H](C(=O)N1C[C@@H](C)C[C@H]1c1nc2c(ccc3cc(-c4ccc(NC(=O)N5CCN(C6CCN(C(=O)C7CC7)CC6)CC5)cc4OC(F)(F)F)ccc32)[nH]1)C1CCOCC1` [Example 7-4]: under 0.1 nM.
On to `COC(=O)N[C@H](C(=O)N1C[C@@H](C)C[C@H]1c1nc(-c2ccc(-c3ccc(NC(=O)N4CCN(C5CCN(C(=O)C(C)(C)C)CC5)CC4)cc3OC(F)(F)F)cc2)c(F)[nH]1)C(C)C` [Example 8, [(S)-1-((2S,4S)-2-{4-[4′-({4-[1-(2,2-Dimethyl-propionyl)-piperidin-4-yl]-piperazine-1-carbonyl}-amino)-2′-trifluoromethoxy-biphenyl-4-yl]-5-fluoro-1H-imidazol-2-yl}-4-methyl-pyrrolidine-1-carbonyl)-2-methyl-propyl]-carbamic acid methyl ester], for which the EC50 was under 0.1 nM.
Same read-out and setting: the same measure for `COC(=O)N[C@H](C(=O)N1CCC[C@H]1c1nc(-c2ccc(-c3ccc(NC(=O)N4CC5CCC(C4)N5C4CCN(C(=O)C5CC5)CC4)cc3OC(F)(F)F)cc2)c[nH]1)C(C)C` [Example 8-1]: 1 to 10 nM; for `COC(=O)N[C@H](C(=O)N1CCC[C@H]1c1nc(-c2ccc(-c3ccc(NC(=O)N4CC5CCC(C4)N5C4CCN(C(=O)OC(C)(C)C)CC4)cc3OC(F)(F)F)cc2)c[nH]1)C(C)C` [Example 8-2]: 0.1 to 1 nM.
Still for that read-out and setting: the same measure for `COC(=O)N[C@H](C(=O)N1[C@@H](C)CC[C@H]1c1nc(-c2ccc(-c3ccc(NC(=O)N4CCN(C5CCN(C(=O)C(C)(C)C)CC5)CC4)cc3OC(F)(F)F)cc2)c[nH]1)C(C)C` [Example 8-3]: 0.1 to 1 nM; for `COC(=O)N[C@H](C(=O)N1[C@@H](C)CC[C@H]1c1nc(-c2ccc(-c3ccc(NC(=O)N4CCN(C5CCN(C(=O)C6CC6)CC5)CC4)cc3OC(F)(F)F)cc2)c[nH]1)C(C)C` [Example 8-4]: 0.1 to 1 nM; for `COC(=O)N[C@H](C(=O)N1[C@@H](C)CC[C@H]1c1nc(-c2ccc(-c3ccc(NC(=O)N4CCN(C5CCN(C(=O)[C@H]6CC6(C)C)CC5)CC4)cc3OC(F)(F)F)cc2)c[nH]1)C(C)C` [Example 8-5]: 0.1 to 1 nM.
Regarding `COC(=O)N[C@H](C(=O)N1C[C@@H](C)C[C@H]1c1nc(-c2ccc(-c3ccc(NC(=O)N4CCN(C5CCN(C(=O)C6CC6)CC5)CC4)cc3OC(F)(F)F)cc2)c(F)[nH]1)C(C)C` [Example 9], the EC50 was under 0.1 nM.
Still for that read-out and setting: next, `COC(=O)N[C@H](C(=O)N1C[C@@H](C)C[C@H]1c1nc(-c2ccc(-c3cc(Cl)c(NC(=O)N4CCC(N5CCN(C(=O)C(C)(C)C)C[C@@H]5C)CC4)cc3OC(F)(F)F)cc2)c[nH]1)C(C)C` [Example 12, [(S)-1-((2S,4S)-2-{4-[5′-Chloro-4′-({4-[(S)-4-(2,2-dimethyl-propionyl)-2-methyl-piperazin-1-yl]-piperidine-1-carbonyl}-amino)-2′-trifluoromethoxy-biphenyl-4-yl]-1H-imidazol-2-yl}-4-methyl-pyrrolidine-1-carbonyl)-2-methyl-propyl]-carbamic acid methyl ester]: 0.1 to 1 nM; `COC(=O)N[C@H](C(=O)N1C[C@@H](OC)C[C@H]1c1nc(-c2ccc(-c3ccc(NC(=O)N4CCC(N5CCN(C(=O)C6CCC6(C)C)CC5)CC4)cc3OC(F)(F)F)cc2)c[nH]1)C(C)C` (stereo partly drawn) [Example 14, [(S)-1-((2S,4S)-2-{4-[4′-({4-[4-(2,2-Dimethyl-cyclobutanecarbonyl)-piperazin-1-yl]-piperidine-1-carbonyl}-amino)-2′-trifluoromethoxy-biphenyl-4-yl]-1H-imidazol-2-yl}-4-methoxy-pyrrolidine-1-carbonyl)-2-methyl-propyl]-carbamic acid methyl ester]: 0.1 to 1 nM.
On the same count and under the same terms, next, `COC(=O)N[C@H](C(=O)N1C[C@@H](C)C[C@H]1c1nc2c(ccc3cc(-c4ccc(NC(=O)N5CCN(C6CCN(C(=O)C(C)(C)C)CC6)CC5)cc4OC(F)(F)F)ccc32)[nH]1)C(C)C` [Example 15, [(S)-1-((2S,4S)-2-{7-[4-({4-[1-(2,2-Dimethyl-propionyl)-piperidin-4-yl]-piperazine-1-carbonyl}-amino)-2-trifluoromethoxy-phenyl]-3H-naphtho[1,2-d]imidazol-2-yl}-4-methyl-pyrrolidine-1-carbonyl)-2-methyl-propyl]-carbamic acid methyl ester]: under 0.1 nM.

Staying with this test, now noted: Huh7.5 cell background, NS3-specific protease activity in lysates, 48 or 72 hours.
As for `COC(=O)N[C@H](C(=O)N1C[C@@H](C)C[C@H]1c1nc(-c2ccc(-c3cc(Cl)c(NC(=O)N4CCC(N5CCN(C(=O)[C@H]6CC6(C)C)C[C@H]5C)CC4)cc3OC(F)(F)F)cc2)c[nH]1)C(C)C` [Example 4-17], the “Genotype 1a (pEC50 class)” value was “C (C represents pEC50 between and 9 and about 10, (EC50 between 1 nM and 0.1 nM))”.
On the same count and under the same terms, next, `COC(=O)N[C@H](C(=O)N1C[C@@H](OC)C[C@H]1c1nc(-c2ccc(-c3ccc(NC(=O)N4CCN(C5CCN(C(=O)[C@H]6CC6(C)C)CC5)CC4)cc3OC(F)(F)F)cc2)c[nH]1)C(C)C` [Example 5-2]: “C (C represents pEC50 between and 9 and about 10, (EC50 between 1 nM and 0.1 nM))”; `COC(=O)N[C@H](C(=O)N1C[C@@H](C)C[C@H]1c1nc2c(ccc3cc(-c4ccc(NC(=O)N5CCN(C6CCN(C(=O)[C@H]7CC7(C)C)CC6)CC5)cc4OC(F)(F)F)ccc32)[nH]1)C1CCOCC1` [Example 7-5]: “D (D represents pEC50>10 (EC50<0.1 nM))”.
On the same count and under the same terms, next, `COC(=O)N[C@H](C(=O)N1C[C@@H](C)C[C@H]1c1nc(-c2ccc(-c3ccc(NC(=O)N4CCN(C5CCN(C(=O)[C@H]6CC6(C)C)CC5)CC4)cc3OC(F)(F)F)cc2)c(F)[nH]1)C(C)C` [Example 10]: “D (D represents pEC50>10 (EC50<0.1 nM))”.
